Data as given in patent US10064858B2, “Methods and compositions for treating bacterial infections with iron chelators” (THE UNITED STATES OF AMERICA, AS REPRESENTED BY THE …, priority 2011, dated 2018).
Where two headings read alike, the source gives them in different places.

Legend:
Type in all cases: cell-based
[1] = system: AB5075 a MDR-clinical isolate of A. baumannii; assay: Time-kill assay in CAMHB; details: for time-kill course of CFU/mL: CAMHB, 24 hours (FIG. 8A); for effect on CFU/ml (time-kill, FIG. 13): 2 and 6 hours
Procedure: Reductions in colony forming units (CFU)/mL were determined over time (time-kill assay) after exposure to VK28 and deferiprone (DFP), the two iron chelators that performed best in MIC assays when compared to controls. To better represent the iron content found in the human body, MIC and time-kill assays were also determined in minimal media and tissue culture media. Time-Kill assays were performed as previously described in G. P. Neupane et al., “In vitro time-kill activities of ciprofloxacin alone and in combination with the iron chelator deferasirox against Vibrio vulnificus,” European Journal of Clinical Microbiology and Infectious Diseases, 407-410 (2010); and R. L. White, et al., “Comparison of Three Different In Vitro Methods of Detecting synergy: Time-Kill, Checkerboard, and E test,” Journal of Antimicrobial Agents and Chemotherapy, 1914-1918 (1996). Initial inocula, for example 1×10^6 CFU/mL or 1×10^7 CFU/mL were challenged with iron chelator with and/or without an antibiotic. Cells were allowed to grow in CAMHB at 37° C. for 24 hours. Time-kill results were analyzed by determining the change in log 10 numbers of CFU/ml at 0, 6, and 24 h, compared to counts at 0 h. Antimicrobials were considered bactericidal at the lowest concentration that reduced the size of the original inoculum by >3 log 10 CFU/ml (99.9%) over each of the time periods and were considered bacteriostatic if the inoculum's size was reduced by 0 to <3 log 10 CFU/ml.
(§1) In this example, time-kill assays were performed as described in Example 9 using Apo6619 as the iron chelator against AB5075 (MRSN959), the MDR-clinical isolate of A. baumannii. The initial inocula was 1×10^6 CFU/mL, and were challenged with 0.5×MIC, 1×MIC and 2×MIC of Apo6619. Time-kill results were analyzed by determining the change in log 10 numbers of CFU/mL at 0, 2 and 4 hours.
as §1, with “VK28 or DFP” for “Apo6619”, “AB5075,” for “AB5075 (MRSN959),”, “either VK28 or DFP.” for “Apo6619.”, “at” for “at 0,”, “6” for “4”

S. aureus = assay: MIC, CLSI microdilution (Tables 1 and 6); details: Staphylococcus aureus, Table 1, read-out: MIC of Iron Chelators
Procedure: (§2) The minimal inhibitory concentration (MIC) of non-toxic iron chelators was determined against standard strains of MDR bacteria and clinical isolates according to the guidelines of the Clinical and Laboratory Standards Institute (CLSI).
(§3) Individual MICs were determined following the microdilution method recommended by CLSI in cationic-adjusted Mueller-Hinton Broth (CAMHB), or M9 media. […] Tests were performed in triplicate. MIC of iron chelators were determined for noscomial ESKAPE pathogens.
(§4) MIC were determined in CAMHB media as described above in Example 8.

P. aeruginosa [2] = assay: MIC, CLSI microdilution (Tables 1 and 6); details: Pseudomonas aeruginosa, Table 1, read-out: MIC of Iron Chelators
Procedure: as §2, §3, §4

K. pneumonia [3] = assay: MIC, CLSI microdilution (Tables 1 and 6); details: Klebsiella pneumoniae, Table 1, read-out: MIC of Iron Chelators
Procedure: as §2, §3, §4

Acinetobacter baumannii [4] = assay: MIC, CLSI microdilution (Tables 1 and 6)
Procedure: as §2, §3, §4

E. coli [5] = assay: MIC, CLSI microdilution (Tables 1 and 6); details: Escherichia coli, Table 1, read-out: MIC of Iron Chelators
Procedure: as §2, §3, §4

P. aeruginosa [6] = assay: MIC in RPMI1640 media (Table 2); details: Pseudomonas aeruginosa
Procedure: (§5) […] […] Tests were performed in triplicate. MIC of iron chelators were determined for noscomial ESKAPE pathogens.
(§6) This media is closer to the iron levels in the human body. MICs are in ug/mL.

K. pneumonia [7] = assay: MIC in RPMI1640 media (Table 2); details: Klebsiella pneumoniae
Procedure: as §5, §6

Acinetobacter baumannii [8] = assay: MIC in RPMI1640 media (Table 2)
Procedure: as §5, §6

E. coli [9] = assay: MIC in RPMI1640 media (Table 2)
Procedure: as §5, §6

[10] = system: clinical isolates of A. baumannii; assay: MIC for clinical isolates in CAMHB media (Table 3); details: Acinetobacter baumannii
Procedure: as §3

Cc1c(O)c(=O)ccn1C [ApoL1, 3-hydroxy-1,2-dimethyl-4(1H)-pyridone]
time-kill course of CFU/mL ([1]; 0.5×MIC): reduced level of CFU/ml at 2 and 6 hours but did increase in CFU at 24 hours to levels as seen in the untreated sample | effect on CFU/ml (time-kill, FIG. 13) ([1]; 1×MIC): slight inhibitory effect | time-kill course of CFU/mL ([1]; 1×MIC): reduced level of CFU/ml at 2 and 6 hours but did increase in CFU at 24 hours to levels as seen in the untreated sample | effect on CFU/ml (time-kill, FIG. 13) ([1]; 2×MIC): stronger inhibitory effect | time-kill course of CFU/mL ([1]; 2×MIC): did not have a substantial increase in CFU/ml over the 24 hour period | MIC (S. aureus; ATCC25923, ATCC 25923): > 500 mg/L | MIC (S. aureus; ATCC 43300 (MRSA)): > 500 mg/L | MIC (P. aeruginosa [2]; ATCC27853, ATCC 27853): > 500 mg/L | MIC (P. aeruginosa [2]; PAO1): 250 mg/L | MIC (K. pneumonia [3]; ATCC700603, ATCC 700603): 500 mg/L | MIC (K. pneumonia [3]; BAA2146, BAA-2146): 250 mg/L | MIC (Acinetobacter baumannii [4]; ATCC17978, ATCC 17978, Table 1, read-out: MIC of Iron Chelators): 125 mg/L | MIC (Acinetobacter baumannii [4]; ATCC19606, ATCC 19606, Table 1, read-out: MIC of Iron Chelators): 125 mg/L | MIC (E. coli [5]; ATCC35218, ATCC 35218): 500 mg/L | MIC (E. coli [5]; ATCC43888, ATCC 43888 (0157:H7)): 500 mg/L | MIC (P. aeruginosa [6]; ATCC27853, ATCC 27853, read-out: MIC of Iron Chelators): 500 mg/L | MIC (P. aeruginosa [6]; PAO1, read-out: MIC of Iron Chelators): 125 mg/L | MIC (K. pneumonia [7]; ATCC700603, ATCC 700603, read-out: MIC of Iron Chelators): 250 mg/L | MIC (K. pneumonia [7]; BAA2146, BAA-2146, read-out: MIC of Iron Chelators): 250 mg/L | MIC (Acinetobacter baumannii [8]; ATCC17978, ATCC 17978, read-out: MIC of Iron Chelators): 64 mg/L | MIC (Acinetobacter baumannii [8]; ATCC19606, ATCC 19606, read-out: MIC of Iron Chelators): 125 mg/L | MIC (E. coli [9]; Escherichia coli, 35718, read-out: MIC of Iron Chelators): 500 mg/L | MIC (E. coli [9]; Escherichia coli, ATCC43888, ATCC 43888 (0157:H7), read-out: MIC of Iron Chelators): 250 mg/L | MIC ([10]; AB967, read-out: MIC of Iron Chelators): 250 mg/L | MIC ([10]; AB2828, read-out: MIC of Iron Chelators): 500 mg/L | MIC ([10]; AB3340, read-out: MIC of Iron Chelators): 250 mg/L | MIC ([10]; AB3560, read-out: MIC of Iron Chelators): 500 mg/L | MIC ([10]; AB3638, read-out: MIC of Iron Chelators): 250 mg/L | MIC ([10]; AB3785, read-out: MIC of Iron Chelators): 250 mg/L | MIC ([10]; AB3806, read-out: MIC of Iron Chelators): 500 mg/L | MIC ([10]; AB3917, read-out: MIC of Iron Chelators): 250 mg/L | MIC ([10]; AB3927, read-out: MIC of Iron Chelators): 250 mg/L | MIC ([10]; AB4025, read-out: MIC of Iron Chelators): 250 mg/L | MIC ([10]; AB4026, read-out: MIC of Iron Chelators): 250 mg/L | MIC ([10]; AB4027, read-out: MIC of Iron Chelators): 250 mg/L | MIC ([10]; AB4052, read-out: MIC of Iron Chelators): 250 mg/L | MIC ([10]; AB4269, read-out: MIC of Iron Chelators): 250 mg/L | MIC ([10]; AB4448, read-out: MIC of Iron Chelators): 250 mg/L | MIC ([10]; AB4456, read-out: MIC of Iron Chelators): 250 mg/L | MIC ([10]; AB4490, read-out: MIC of Iron Chelators): 250 mg/L | MIC ([10]; AB4498, read-out: MIC of Iron Chelators): 250 mg/L | MIC ([10]; AB4795, read-out: MIC of Iron Chelators): 250 mg/L | MIC ([10]; AB4857, read-out: MIC of Iron Chelators): 250 mg/L | MIC ([10]; AB4878, read-out: MIC of Iron Chelators): 250 mg/L | MIC ([10]; AB4932, read-out: MIC of Iron Chelators): 500 mg/L | MIC ([10]; AB4957, read-out: MIC of Iron Chelators): 125 mg/L | MIC ([10]; AB4991, read-out: MIC of Iron Chelators): 250 mg/L | MIC ([10]; AB5001, read-out: MIC of Iron Chelators): 125 mg/L | MIC ([10]; AB5075, read-out: MIC of Iron Chelators): 250 mg/L | MIC ([10]; AB5197, read-out: MIC of Iron Chelators): 250 mg/L | MIC ([10]; AB5256, read-out: MIC of Iron Chelators): 250 mg/L | MIC ([10]; AB5674, read-out: MIC of Iron Chelators): 250 mg/L | MIC ([10]; AB5711, read-out: MIC of Iron Chelators): 250 mg/L
